These results are taken from patent publication US10066025B2, “Compositions and methods for detecting, treating and preventing diseases and disorders” (YALE UNIVERSITY, priority 2012, dated 2018).

Assay [1] has as its system renal ischemia/reperfusion (IR) injury. In words: Murine model of renal ischemia/reperfusion (IR) injury, plasma creatinine. The assay is classed as in vivo, mice. To be noted: renalase peptides 100 μg subcutaneous 10 to 30 min prior to 30 min renal ischemia, WT mice. Here is the method: Adult male renalase deficient (KO) mice (Wu et al., 2011, Kidney Int 79: 853-860) on a C57BL/6 background were subjected to renal ischemia/reperfusion (IR) as described (Kim et al., 2009, Kidney Int 75: 809-823; Kim et al., 2010, Am J Physiol Renal Physiol 299(2):F347-58). Renalase KO or wild type (WT) mice (C57BL/6 from Harlan Labs, Indianapolis, Ind.) were subjected to sham-operation or to 20 min. (moderate) or 30 min. (severe) renal ischemia and 24 hr. reperfusion. To test the renal protective effects of recombinant human renalase, mice were pretreated with saline (vehicle) or with recombinant renalase (0.5, 1.5 or 4.5 mg/kg, s.c.) 10 min. prior to 30 min. renal ischemia. It was also tested whether renalase treatment after completion of renal ischemia also provides renal protection. Separate cohorts of mice were treated with saline or with renalase (1.5 mg/kg, s.c.) 30 min. or 60 min. after reperfusion of the ischemic kidney. To test whether blocking alpha receptors would mimic the renal protective effects of human recombinant renalase administration, phentolamine (an alpha receptor antagonist, 5 mg/kg, i.p.) was given in some mice 15 min. before renal ischemia.
Plasma creatinine was measured as described with an enzymatic creatinine reagent kit according to the manufacturer's instructions (Thermo Fisher Scientific, Waltham, Mass.) (Slot, 1965, J Clin Lab Invest 17: 381-387).
After animal care and use committee approval, adult male C57BL/6 (Harlan Labs, Indianapolis, Ind.) were subjected to sham-operation or to 30 minutes of renal ischemia followed by 24 hrs of reperfusion as previously described (Lee et al., 2004, American journal of physiology. Renal physiology 286:F298-306). To test the renal protective effects of renalase peptides (RP-220, RP-H220 and RP-224), mice were pretreated with saline (vehicle) or with renalase peptides (100 μg subcutaneous) 10 to 30 minutes prior to renal ischemia.
Blood was collected from mice anesthetized with isoflurane via cardiac puncture into a heparinized syringe and was subsequently centrifuged to separate plasma. Samples were submitted to the Yale O'Brien Kidney Center for measurement of BUN and creatinine. Plasma creatinine was measured either by an enzymatic creatinine reagent kit according to the manufacturer's instructions (Thermo Fisher Scientific, Waltham, Mass.) or by HPLC. These methods of creatinine measurement largely eliminate the interferences from mouse plasma chromagens, known to occur with the Jaffe method.

A short description of assay [2]: NADH / amine oxidase activity of renalase peptides. In kind it is biochemical. To be noted: 25 mM Tris, pH 7.5, 5 mM NaCl, 150 μM NADH, 37° C. The procedure: Renalase isoforms Ren1-7; exons numbered from 1 to 10; RP-224: renalase peptide amino acid 224-233 of Ren1 or Ren2; RP-220; amino acids 220-239; RP-H220: histidine tagged RP-220; RP-Scr220: scrambled RP-220 (FIG. 19A). CCL-119 cells in culture treated with anti-renalase monoclonal antibody for 24 hrs; cell survival measured by the WST-1 method; n=3, *: P<0.05 (FIG. 19B). HK-2 cell treated with 2 mM H2O2 with and without renalase peptides for indicated time; LDH: lactate dehydrogenase; n=6, *: P<0.05 for Control vs. renalase peptide (FIG. 19C). HK-2 cells treated with 20 μM cisplatin with and without recombinant renalase and renalase peptides for 24 hrs, *: P<0.05, control vs. renalase peptide (FIG. 19D). Plasma creatinine levels from mice subjected to sham-surgery or to renal ischemia and reperfusion (IR); Renalase WT mice were subjected to sham-surgery or to 30 min renal IR. For mice subjected to renal IR, RP-H220 or vehicle (saline) was injected 10 min prior to renal ischemia.
Human recombinant renalase was synthesized as described (Desir et al., 2012, J Am Heart Assoc. 1:e002634). […] Renalase enzymatic activity was measured as previously described (Desir et al., 2012, J Am Heart Assoc. 1:e002634). Renalase expression was detected using an anti-renalase monoclonal antibody generated against the renalase peptide RP-220 (amino acid

A further assay relates to cisplatin-mediated AKI. In words: Murine model of cisplatin AKI. The assay is classed as in vivo, mice. To be noted: cisplatin + peptide; Sham 0.05±0.002, cisplatin 0.177±0.02; n=3. Here is the method:
The efficacy of recombinant renalase in treating cisplatin-induced AKI was investigated, and the mechanisms that mediate its protective action were assessed. Cisplatin (20 mg/kg) was administered by intra-peritoneal injection to either WT or renalase KO mice. The mice were sacrificed 3 days later. Blood was collected for BUN and creatinine measurements, and kidneys harvested for histologic examination, immunofluorescence (IF), and western blotting (WB). One renal pathologist, masked to the identity of the study animal, reviewed each kidney specimen. Pathologic features were scored using an ordinal rating scale (0-4; 0=none; 1=<25%, 2=26-50%; 3=51-75%; 4=76-100%) for the presence of tubular necrosis. Morphometry of renal cortex and medulla was performed using point counting technique. Points falling on injured tubules, were counted and the percentage of lesion area was calculated as percentage of total points counted
Cisplatin (15-20 mg/kg) was administered by intraperitoneal injection (IP) to either WT or renalase KO mice under brief isoflurane anesthesia. The animals were sacrificed 3 days later. […] Pathologic features were scored using an ordinal rating scale (0-4; 0=none; 1=<25%, 2=26-50%; 3=51-75%; 4=76-100%) for the presence of tubular necrosis. […] Points falling on injured tubules were counted, and the percentage of lesion area was calculated as percentage of total points counted. […]

The test system of a further assay is systemic blood pressure. In words: Blood pressure and heart rate in anesthetized mice. The settings on record: for effect on systemic blood pressure: IV and subcutaneous administration, mice. The assay is classed as in vivo. Here is the method:
As in 14A, except that RP-H220 is injected; no significant changes in blood pressure (FIG. 14B). Effect of a single intravenous injection of RP-220 (squares) and RP-H220 (diamonds) on heart rate in wild type mice (FIG. 14C).
FIG. 21 depicts the results of experiments examining the effect of RP-220 injection on blood pressure. A single subcutaneous injection of RP-220 (n=3) or buffer (n=2) in anesthetized wild type mice; BP pressure is recorded continuously; RP-220 is given at time 0; each data point represents the mean pressure; the standard error of the means are shown.
Systolic and diastolic pressure and heart rate were measured in anesthetized mice as previously described (Desir et al., 2012, J Am Heart Assoc. 1:e002634).

Entries after “also recorded” stand apart in the source; their conditions may differ.

“RP H220: histidine tagged RP-220, SEQ ID NO: 4, HHHHHHCIRFVSIDNKKRNIESSEIG (listed as Homo sapiens)”: the “protection against ischemic AKI (renal injury, plasma creatinine at 24 hr)” value in assay [1] is listed as “protected against ischemia”; in assay [1] (listed as RP-H220), “reduced renal injury; also recorded: more effective than RP-220; also recorded: ameliorated the renal ischemic injury”. In assay [2], the “NADH or amine oxidase activity” value was “no detectable NADH or amine oxidase activity; also recorded: neither detectable oxidase activity”. Also, the “creatinine measured by HPLC” value in the assay with cisplatin-mediated AKI turned out to be 0.085±0.007. Also, the “effect on systemic blood pressure” value is “nor significant effect on systemic blood pressure; also recorded: no effect on BP” in the assay with systemic blood pressure and “neither intravenous nor subcutaneous injection of RP-H220 had any effect on blood pressure” with systemic blood pressure (listed as RP-H220). The heart rate result in the assay with systemic blood pressure (anesthetized WT mice) is “did not change”.
